{"source": "paper PMC5218480", "about": "(PLoS ONE, 2017)", "system": "MV-4-11 cells", "assay": "Gene expression microarray analysis (Affymetrix PrimeView) and GSEA", "type": "cell-based, human", "parameters": "RFU PODN (11730768_x_at) / Fold change /veh PODN (11730768_x_at) / RFU LINC00158 (11744669_a_at) / Fold change /veh LINC00158 (11744669_a_at) / RFU DUSP10 (11751237_a_at) / Fold change /veh DUSP10 (11751237_a_at) / RFU ID3 (11757404_x_at) / Fold change /veh ID3 (11757404_x_at) / RFU PLEKHG5 (11737974_s_at) / Fold change /veh PLEKHG5 (11737974_s_at) / RFU LRRC4B (11730491_at) / Fold change /veh LRRC4B (11730491_at) / RFU GIMAP4 (11747438_a_at) / Fold change /veh GIMAP4 (11747438_a_at) / RFU KRT8 (11758183_x_at) / Fold change /veh KRT8 (11758183_x_at) / RFU CNN1 (11734310_a_at) / Fold change /veh CNN1 (11734310_a_at) / RFU VPS37D (11726825_at) / Fold change /veh VPS37D (11726825_at) / RFU C10orf10 (11716522_x_at) / Fold change /veh C10orf10 (11716522_x_at) / RFU KIR2DL2 /// KIR2DL4 /// KIR2DL5A /// KIR2DL5B /// KIR2DS1 /// KIR2DS2 /// KIR2DS3 /// KIR2DS4 /// KIR3DL3 /// KIR3DL3 /// KIR3DS1 (11738374_at) / Fold change /veh KIR2DL2 /// KIR2DL4 /// KIR2DL5A /// KIR2DL5B /// KIR2DS1 /// KIR2DS2 /// KIR2DS3 /// KIR2DS4 /// KIR3DL3 /// KIR3DL3 /// KIR3DS1 (11738374_at) / RFU C1QL1 (11718748_at) / Fold change /veh C1QL1 (11718748_at) / RFU TMPRSS4 (11747572_a_at) / Fold change /veh TMPRSS4 (11747572_a_at) / RFU HAMP (11756126_x_at) / Fold change /veh HAMP (11756126_x_at) / RFU RNFT2 (11725882_a_at) / Fold change /veh RNFT2 (11725882_a_at) / RFU NR4A2 (11747474_a_at) / Fold change /veh NR4A2 (11747474_a_at) / RFU ABCC12 (11746883_a_at) / Fold change /veh ABCC12 (11746883_a_at) / RFU TMEM136 (11760407_x_at) / Fold change /veh TMEM136 (11760407_x_at) / RFU CLDN22 /// WWC2 (11732394_at) / Fold change /veh CLDN22 /// WWC2 (11732394_at) / RFU HLA-DPB1 (11760878_x_at) / Fold change /veh HLA-DPB1 (11760878_x_at) / RFU SPINT1 (11716480_a_at) / Fold change /veh SPINT1 (11716480_a_at) / RFU GAP43 (11754022_s_at) / Fold change /veh GAP43 (11754022_s_at) / RFU A4GNT (11735810_at) / Fold change /veh A4GNT (11735810_at) / RFU PRB3 (11715151_x_at) / Fold change /veh PRB3 (11715151_x_at) / RFU TUBB4B (11761932_at) / Fold change /veh TUBB4B (11761932_at) / RFU CAPN14 (11732068_a_at) / Fold change /veh CAPN14 (11732068_a_at) / RFU TMCC2 (11721928_a_at) / Fold change /veh TMCC2 (11721928_a_at) / RFU IRGQ (11745062_a_at) / Fold change /veh IRGQ (11745062_a_at) / RFU FAM174B (11720279_a_at) / Fold change /veh FAM174B (11720279_a_at) / RFU TMPRSS4 (11748680_a_at) / Fold change /veh TMPRSS4 (11748680_a_at) / RFU FAM212B (11763350_a_at) / Fold change /veh FAM212B (11763350_a_at) / RFU PLEKHG5 (11743358_a_at) / Fold change /veh PLEKHG5 (11743358_a_at) / RFU ZSCAN30 (11745921_a_at) / Fold change /veh ZSCAN30 (11745921_a_at) / RFU CMKLR1 (11741424_a_at) / Fold change /veh CMKLR1 (11741424_a_at) / RFU LOC101060620 /// MAPK8IP1 (11723275_at) / Fold change /veh LOC101060620 /// MAPK8IP1 (11723275_at) / RFU SPTSSB (11747773_x_at) / Fold change /veh SPTSSB (11747773_x_at) / RFU PRSS12 (11739890_at) / Fold change /veh PRSS12 (11739890_at) / RFU BIN1 (11741810_x_at) / Fold change /veh BIN1 (11741810_x_at) / RFU WNT11 (11732464_a_at) / Fold change /veh WNT11 (11732464_a_at) / RFU C10orf10 (11716521_a_at) / Fold change /veh C10orf10 (11716521_a_at) / RFU C5orf56 (11738089_at) / Fold change /veh C5orf56 (11738089_at) / RFU CYB561 (11721691_x_at) / Fold change /veh CYB561 (11721691_x_at) / RFU ANKRD19P (11752326_a_at) / Fold change /veh ANKRD19P (11752326_a_at) / RFU OR2T12 /// OR2T33 /// OR2T8 (11738714_s_at) / Fold change /veh OR2T12 /// OR2T33 /// OR2T8 (11738714_s_at) / RFU VCAN (11748164_a_at) / Fold change /veh VCAN (11748164_a_at) / RFU JSRP1 (11732532_at) / Fold change /veh JSRP1 (11732532_at) / RFU KRTAP10-11 (11738290_x_at) / Fold change /veh KRTAP10-11 (11738290_x_at) / RFU MYO3A (11730013_a_at) / Fold change /veh MYO3A (11730013_a_at) / RFU EBF3 (11725865_a_at) / Fold change /veh EBF3 (11725865_a_at) / RFU CAMK2N1 (11719241_x_at) / Fold change /veh CAMK2N1 (11719241_x_at) / RFU C5orf56 (11738088_a_at) / Fold change /veh C5orf56 (11738088_a_at) / RFU OLFML3 (11715873_a_at) / Fold change /veh OLFML3 (11715873_a_at) / RFU LOC100653217 /// NTM (11731650_a_at) / Fold change /veh LOC100653217 /// NTM (11731650_a_at) / RFU MAPK11 (11762145_a_at) / Fold change /veh MAPK11 (11762145_a_at) / RFU FIZ1 (11724087_x_at) / Fold change /veh FIZ1 (11724087_x_at) / RFU OASL (11726364_x_at) / Fold change /veh OASL (11726364_x_at) / RFU SOX15 (11748057_x_at) / Fold change /veh SOX15 (11748057_x_at) / RFU CD79A (11719716_a_at) / Fold change /veh CD79A (11719716_a_at) / RFU HIST1H1D (11736915_at) / Fold change /veh HIST1H1D (11736915_at) / RFU CASKIN2 (11723855_a_at) / Fold change /veh CASKIN2 (11723855_a_at) / RFU LOC730098 (11760151_x_at) / Fold change /veh LOC730098 (11760151_x_at) / RFU OR4N2 (11742367_at) / Fold change /veh OR4N2 (11742367_at) / RFU PRRT2 (11749266_a_at) / Fold change /veh PRRT2 (11749266_a_at) / RFU SNX32 (11753110_a_at) / Fold change /veh SNX32 (11753110_a_at) / RFU CDHR5 (11726645_a_at) / Fold change /veh CDHR5 (11726645_a_at) / RFU RCAN1 (11760418_a_at) / Fold change /veh RCAN1 (11760418_a_at) / RFU FAM167A (11723789_a_at) / Fold change /veh FAM167A (11723789_a_at) / RFU FAM26E (11764081_at) / Fold change /veh FAM26E (11764081_at) / RFU ISYNA1 (11749810_s_at) / Fold change /veh ISYNA1 (11749810_s_at) / RFU ACY1 (11761880_at) / Fold change /veh ACY1 (11761880_at) / RFU 11764098_at / Fold change /veh 11764098_at / RFU SAMD14 (11745864_x_at) / Fold change /veh SAMD14 (11745864_x_at) / RFU NPB (11741838_a_at) / Fold change /veh NPB (11741838_a_at) / RFU TMPRSS6 (11731388_a_at) / Fold change /veh TMPRSS6 (11731388_a_at) / RFU KRTAP10-2 (11738614_at) / Fold change /veh KRTAP10-2 (11738614_at) / RFU ARHGAP8 /// PRR5-ARHGAP8 (11727945_x_at) / Fold change /veh ARHGAP8 /// PRR5-ARHGAP8 (11727945_x_at) / RFU KRTAP5-7 /// NADSYN1 (11734609_at) / Fold change /veh KRTAP5-7 /// NADSYN1 (11734609_at) / RFU RASL12 (11751679_a_at) / Fold change /veh RASL12 (11751679_a_at) / RFU CDKN2B (11736163_a_at) / Fold change /veh CDKN2B (11736163_a_at) / RFU PRF1 (11729649_at) / Fold change /veh PRF1 (11729649_at) / RFU, ZNF638 /// ZNF638-IT1 / Fold change vs veh, ZNF638 /// ZNF638-IT1 / RFU, PANK3 / Fold change vs veh, PANK3 / RFU, SH3YL1 / Fold change vs veh, SH3YL1 / RFU, ZEB2 / Fold change vs veh, ZEB2 / RFU, NRIP1 / Fold change vs veh, NRIP1 / RFU, PTTG1IP / Fold change vs veh, PTTG1IP / RFU, CAPN2 / Fold change vs veh, CAPN2 / RFU, MED14 / Fold change vs veh, MED14 / RFU, SNORA58 / Fold change vs veh, SNORA58 / RFU, C1orf63 / Fold change vs veh, C1orf63 / RFU, LRRFIP1 / Fold change vs veh, LRRFIP1 / RFU, NDUFAF7 / Fold change vs veh, NDUFAF7 / RFU, SLC12A2 / Fold change vs veh, SLC12A2 / RFU, IBTK / Fold change vs veh, IBTK / RFU, ESF1 / Fold change vs veh, ESF1 / Fold change vs veh, TMEM50B / RFU, TAOK1 / Fold change vs veh, TAOK1 / RFU, ACBD3 / Fold change vs veh, ACBD3 / RFU, TMA16 / Fold change vs veh, TMA16 / RFU, RWDD3 / Fold change vs veh, RWDD3 / RFU, BCAT1 / Fold change vs veh, BCAT1 / RFU, EDEM3 / Fold change vs veh, EDEM3 / RFU, TMEM33 / Fold change vs veh, TMEM33 / RFU, WDR75 / Fold change vs veh, WDR75 / RFU, AHCTF1 / Fold change vs veh, AHCTF1 / RFU, TFRC / Fold change vs veh, TFRC / RFU, ZDHHC17 / Fold change vs veh, ZDHHC17 / RFU, NOM1 / Fold change vs veh, NOM1 / RFU, ARL8B / Fold change vs veh, ARL8B / RFU, ZBTB11 / Fold change vs veh, ZBTB11 / RFU, TAMM41 / Fold change vs veh, TAMM41 / RFU, KIAA1704 /// LOC100996395 / Fold change vs veh, KIAA1704 /// LOC100996395 / RFU, ING1 / Fold change vs veh, ING1 / RFU, TRMT61B / Fold change vs veh, TRMT61B / RFU, FUBP3 / Fold change vs veh, FUBP3 / RFU, TP53 / Fold change vs veh, TP53 / RFU, TNKS2 / Fold change vs veh, TNKS2 / RFU, ZFP14 / Fold change vs veh, ZFP14 / RFU, ACTR2 / Fold change vs veh, ACTR2 / RFU, PPP3R1 / Fold change vs veh, PPP3R1 / RFU, PIK3R1 / Fold change vs veh, PIK3R1 / RFU, HNRNPA1 / Fold change vs veh, HNRNPA1 / RFU, RNF170 / Fold change vs veh, RNF170 / RFU, ZNF28 / Fold change vs veh, ZNF28 / RFU, RNGTT / Fold change vs veh, RNGTT / RFU, OGT / Fold change vs veh, OGT / RFU, BRD1 / Fold change vs veh, BRD1 / RFU, MARS / Fold change vs veh, MARS / RFU, ZNF655 / Fold change vs veh, ZNF655 / RFU, FAHD1 / Fold change vs veh, FAHD1 / RFU, BDP1 / Fold change vs veh, BDP1 / RFU, LRRCC1 / Fold change vs veh, LRRCC1 / RFU, ARID1A / Fold change vs veh, ARID1A / RFU, ZNF146 / Fold change vs veh, ZNF146 / RFU, ZNF330 / Fold change vs veh, ZNF330 / RFU, GPN3 / Fold change vs veh, GPN3 / RFU, C9orf123 / Fold change vs veh, C9orf123 / RFU, N4BP2L2 / Fold change vs veh, N4BP2L2 / RFU, ARFIP1 / Fold change vs veh, ARFIP1 / RFU, FAM179B / Fold change vs veh, FAM179B / RFU, BCL10 / Fold change vs veh, BCL10 / RFU, UHRF1BP1L / Fold change vs veh, UHRF1BP1L / RFU, BET1 / Fold change vs veh, BET1 / RFU, CNOT2 / Fold change vs veh, CNOT2 / RFU, ZNF268 / Fold change vs veh, ZNF268 / Fold change vs veh, ZNF507 / RFU, DGCR2 / Fold change vs veh, DGCR2 / RFU, WDSUB1 / Fold change vs veh, WDSUB1 / Fold change vs veh, HSP90B1 /// MIR3652 / RFU, ADSS / Fold change vs veh, ADSS / RFU, GK / Fold change vs veh, GK / RFU, ZNF148 / Fold change vs veh, ZNF148 / RFU, TAF9 / Fold change vs veh, TAF9 / RFU, SLC1A5 / Fold change vs veh, SLC1A5 / RFU, SLMO2 / Fold change vs veh, SLMO2 / RFU, ABCC4 / Fold change vs veh, ABCC4 / RFU, LOC101060439 /// RAP1B / Fold change vs veh, LOC101060439 /// RAP1B / RFU, RFX7 / Fold change vs veh, RFX7 / RFU, GTPBP10 / Fold change vs veh, GTPBP10 / RFU, CNEP1R1 / Fold change vs veh, CNEP1R1 / RFU, BIVM-ERCC5 /// ERCC5 / Fold change vs veh, BIVM-ERCC5 /// ERCC5 / RFU, ILF3 / Fold change vs veh, ILF3 / RFU 11762660_at / Fold change /veh 11762660_at / RFU VCAN (11757783_s_at) / Fold change /veh VCAN (11757783_s_at) / RFU DDX43 (11728927_at) / Fold change /veh DDX43 (11728927_at) / RFU KRT8 (11758188_x_at) / Fold change /veh KRT8 (11758188_x_at) / RFU NKD1 (11759106_at) / Fold change /veh NKD1 (11759106_at) / RFU SRD5A1 (11742802_a_at) / Fold change /veh SRD5A1 (11742802_a_at) / RFU TPSAB1 /// TPSB2 (11721975_s_at) / Fold change /veh TPSAB1 /// TPSB2 (11721975_s_at) / RFU GSTM3 (11746129_a_at) / Fold change /veh GSTM3 (11746129_a_at) / RFU IL23R (11737362_x_at) / Fold change /veh IL23R (11737362_x_at) / RFU TMEM51 (11727254_a_at) / Fold change /veh TMEM51 (11727254_a_at) / RFU PIWIL2 (11732686_x_at) / Fold change /veh PIWIL2 (11732686_x_at) / RFU ORM1 (11744905_x_at) / Fold change /veh ORM1 (11744905_x_at) / RFU CCDC152 (11743942_at) / Fold change /veh CCDC152 (11743942_at) / RFU ECM1 (11717891_a_at) / Fold change /veh ECM1 (11717891_a_at) / RFU IL23R (11748794_a_at) / Fold change /veh IL23R (11748794_a_at) / RFU TNFAIP8L3 (11732012_x_at) / Fold change /veh TNFAIP8L3 (11732012_x_at) / RFU MBOAT4 (11741988_at) / Fold change /veh MBOAT4 (11741988_at) / RFU 11764193_at / Fold change /veh 11764193_at / RFU TMEM53 (11763286_at) / Fold change /veh TMEM53 (11763286_at) / RFU MAGEB2 (11727129_at) / Fold change /veh MAGEB2 (11727129_at) / RFU TMEM200A (11744735_a_at) / Fold change /veh TMEM200A (11744735_a_at) / RFU CCDC152 (11751479_a_at) / Fold change /veh CCDC152 (11751479_a_at) / RFU FAM211A (11726209_a_at) / Fold change /veh FAM211A (11726209_a_at) / RFU RGS16 (11746705_a_at) / Fold change /veh RGS16 (11746705_a_at) / RFU VCAN (11755009_s_at) / Fold change /veh VCAN (11755009_s_at) / RFU RHOB (11743442_s_at) / Fold change /veh RHOB (11743442_s_at) / RFU RGS16 (11720943_a_at) / Fold change /veh RGS16 (11720943_a_at) / RFU RGS16 (11720944_at) / Fold change /veh RGS16 (11720944_at) / RFU, VPS4B / Fold change vs veh, VPS4B / RFU, CREB1 / Fold change vs veh, CREB1 / RFU, DNAJC13 / Fold change vs veh, DNAJC13 / RFU, GNAQ / Fold change vs veh, GNAQ / RFU, CDK5R1 / Fold change vs veh, CDK5R1 / RFU, ZRANB3 / Fold change vs veh, ZRANB3 / RFU, CUL4A / Fold change vs veh, CUL4A / RFU, CCNY / Fold change vs veh, CCNY / RFU, UFL1 / Fold change vs veh, UFL1 / RFU, COG3 / Fold change vs veh, COG3 / RFU, DIAPH2 / Fold change vs veh, DIAPH2 / RFU, SKA2 / Fold change vs veh, SKA2 / RFU, AFF3 / Fold change vs veh, AFF3 / RFU, LMF1 / Fold change vs veh, LMF1 / RFU, IPO11 / Fold change vs veh, IPO11 / RFU, DFFB / Fold change vs veh, DFFB / RFU, FOXP1 / Fold change vs veh, FOXP1 / RFU, CARD8 / Fold change vs veh, CARD8 / RFU, STRN3 / Fold change vs veh, STRN3 / RFU, ADK / Fold change vs veh, ADK / RFU, RASSF2 / Fold change vs veh, RASSF2 / RFU, WIPF1 / Fold change vs veh, WIPF1 / RFU, LARP1B / Fold change vs veh, LARP1B / RFU, RASA1 / Fold change vs veh, RASA1 / RFU, RB1 / Fold change vs veh, RB1 / RFU, PPFIA1 / Fold change vs veh, PPFIA1 / RFU, MAT2A / Fold change vs veh, MAT2A / RFU, CCT5 / Fold change vs veh, CCT5 / RFU, WDR92 / Fold change vs veh, WDR92 / RFU, CUX1 / Fold change vs veh, CUX1 / RFU, TTC7A / Fold change vs veh, TTC7A / RFU, TMEM135 / Fold change vs veh, TMEM135 / RFU, DEPTOR / Fold change vs veh, DEPTOR / RFU, CPM / Fold change vs veh, CPM / RFU, DNAJB6 / Fold change vs veh, DNAJB6 / RFU, CACNA2D3 / Fold change vs veh, CACNA2D3 / RFU, DTX4 / Fold change vs veh, DTX4 / RFU, TFCP2 / Fold change vs veh, TFCP2 / RFU, GMCL1 /// GMCL1P1 / Fold change vs veh, GMCL1 /// GMCL1P1 / RFU, AEBP2 / Fold change vs veh, AEBP2 / RFU, SNHG1 /// SNORD22 /// SNORD25 /// SNORD26 /// SNORD27 /// SNORD28 /// SNORD29 /// SNORD31 / Fold change vs veh, SNHG1 /// SNORD22 /// SNORD25 /// SNORD26 /// SNORD27 /// SNORD28 /// SNORD29 /// SNORD31 / Fold change (Aza/veh), C12orf56 (ProbeSet 11735607_a_at) / Fold change (ACY-1035/veh), C12orf56 (ProbeSet 11735607_a_at) / Fold change (Aza/veh), FGFR1OP (ProbeSet 11751329_s_at) / Fold change (ACY-1035/veh), FGFR1OP (ProbeSet 11751329_s_at) / Fold change (Aza/veh), VPS36 (ProbeSet 11739960_a_at) / Fold change (ACY-1035/veh), VPS36 (ProbeSet 11739960_a_at) / RFU SYPL1 (11715823_x_at) / Fold change /veh SYPL1 (11715823_x_at) / RFU IGFBP7 (11715501_s_at) / Fold change /veh IGFBP7 (11715501_s_at) / RFU REEP3 (11722064_at) / Fold change /veh REEP3 (11722064_at) / RFU IGLL1 (11728026_x_at) / Fold change /veh IGLL1 (11728026_x_at): dose or concentration left out as unconfirmed", "details": "MV-4-11 cells, 48 hours", "data": [{"smiles": "Nc1ccc(-c2cccs2)cc1NC(=O)c1ccc2c(c1)cc(C1CC1)n2CCN1CCOCC1", "note": "[ACY-1035]", "values": [{"measurement": "RFU SNX32 (11753110_a_at)", "value": 6.46, "unit": "RFU"}]}]}
